Test results as given in the supplement of paper PMC9013687.

Columns and labels:
Danio rerio embryo [1] = conditions: exposure time: 4 dpf
Method: (§1)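 Zebrafish embryos (UFZ-OBI strain) were exposed from 2 hpf for 48 h (2 dpf) or 96 h (4 dpf) at 28 °C; spontaneous tail coiling was scored at 25 hpf. Morphological features from automated image analysis (FishInspector), heart rate and locomotor response were fitted with drc models. Quantal endpoints were dichotomised at 2.5 SD from controls and fitted with a log-logistic model; heart rate, pigmentation and STC were normalised to the replicate control mean. Betamethasone was tested as betamethasone dipropionate, diflorasone as diflorasone diacetate.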

Danio rerio embryo [2] = system: Danio rerio embryo
Method: as §1

Danio rerio embryo [3] = test: EC50 Eye size_Decrease
Method: as §1

Danio rerio embryo [4] = test: EC50 Curvature_Increase
Method: as §1

Danio rerio embryo [5] = test: EC50 Body length_Decrease; conditions: exposure time: 2 dpf
Method: as §1

Danio rerio embryo [6] = test: EC50 Bladder size_Decrease; conditions: exposure time: 4 dpf
Method: as §1

Danio rerio embryo [7] = test: EC50 Pericard size_Increase; conditions: exposure time: 4 dpf
Method: as §1

Danio rerio embryo [8] = test: EC50 Head trunk angle_Decrease; conditions: exposure time: 2 dpf
Method: as §1

Danio rerio embryo [9] = test: EC50 Eye-jaw distance_Decrease; conditions: exposure time: 4 dpf
Method: as §1

Danio rerio embryo [10] = test: EC50 Otolith-eye distance_Decrease; conditions: exposure time: 4 dpf
Method: as §1

Danio rerio embryo [11] = test: EC10 Lack of SB; higher = less potent; conditions: exposure time: 4 dpf
Method: as §1

Danio rerio embryo [12] = test: EC20 Lack of SB; higher = less potent; conditions: exposure time: 4 dpf
Method: as §1

Danio rerio embryo [13] = test: EC20 Any effect; higher = less potent
Method: as §1

Danio rerio embryo [14] = test: EC10 Any effect; higher = less potent
Method: as §1

Danio rerio embryo [15] = test: EC20 Eye size_Decrease; higher = less potent
Method: as §1

Danio rerio embryo [16] = test: EC10 Eye size_Decrease; higher = less potent
Method: as §1

Danio rerio embryo [17] = test: EC10 Curvature_Increase; higher = less potent
Method: as §1

Danio rerio embryo [18] = test: EC20 Curvature_Increase; higher = less potent
Method: as §1

Danio rerio embryo [19] = test: EC20 Body length_Decrease; higher = less potent; conditions: exposure time: 2 dpf
Method: as §1

Danio rerio embryo [20] = test: EC10 Body length_Decrease; higher = less potent; conditions: exposure time: 2 dpf
Method: as §1

Danio rerio embryo [21] = test: EC10 Bladder size_Decrease; higher = less potent; conditions: exposure time: 4 dpf
Method: as §1

Danio rerio embryo [22] = test: EC20 Bladder size_Decrease; higher = less potent; conditions: exposure time: 4 dpf
Method: as §1

Danio rerio embryo [23] = test: EC20 Pericard size_Increase; higher = less potent; conditions: exposure time: 4 dpf
Method: as §1

Danio rerio embryo [24] = test: EC10 Pericard size_Increase; higher = less potent; conditions: exposure time: 4 dpf
Method: as §1

Danio rerio embryo [25] = test: EC10 Head trunk angle_Decrease; higher = less potent; conditions: exposure time: 2 dpf
Method: as §1

Danio rerio embryo [26] = test: EC20 Eye-jaw distance_Decrease; higher = less potent; conditions: exposure time: 4 dpf
Method: as §1

Danio rerio embryo [27] = test: EC10 Eye-jaw distance_Decrease; higher = less potent; conditions: exposure time: 4 dpf
Method: as §1

Danio rerio embryo [28] = test: EC20 Head trunk angle_Decrease; higher = less potent; conditions: exposure time: 2 dpf
Method: as §1

Danio rerio embryo [29] = test: EC20 Otolith-eye distance_Decrease; higher = less potent; conditions: exposure time: 4 dpf
Method: as §1

Danio rerio embryo [30] = test: EC10 Otolith-eye distance_Decrease; higher = less potent; conditions: exposure time: 4 dpf
Method: as §1

Danio rerio embryo [31] = test: spontaneous tail coiling frequency (coils/min/embryo); higher = more spontaneous movement; conditions: 25 hpf
Method: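 Spontaneous tail coilings of zebrafish embryos exposed from 2 hpf were recorded at 24-25 hpf in 1-min videos and detected by a KNIME workflow from grey-value variance. Betamethasone was tested as the dipropionate, diflorasone as the diacetate.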

COC(=O)Nc1nc2cc(Sc3ccccc3)ccc2[nH]1 [Fenbendazole]
Conditions | EC10 Bladder size Decrease [nM] | EC10 Body length Decrease [nM] | EC10 Eye-jaw distance Decrease [nM] | EC10 Head trunk angle Decrease [nM] | EC10 Lack of SB [nM] | EC10 Otolith-eye distance Decrease [nM] | EC10 Pericard size Increase [nM] | EC20 Bladder size Decrease [nM] | EC20 Body length Decrease [nM] | EC20 Eye-jaw distance Decrease [nM] | EC20 Head trunk angle Decrease [nM] | EC20 Lack of SB [nM] | EC20 Otolith-eye distance Decrease [nM] | EC20 Pericard size Increase [nM] | EC50 Bladder size Decrease [nM] | EC50 Body length Decrease [nM] | EC50 Eye-jaw distance Decrease [nM] | EC50 Head trunk angle Decrease [nM] | EC50 Lack of SB [nM] | EC50 Otolith-eye distance Decrease [nM] | EC50 Pericard size Increase [nM]
Danio rerio embryo [1] | – | – | – | – | – | – | – | – | – | – | – | – | – | – | – | – | – | – | 50 | – | –
Danio rerio embryo [5] | – | – | – | – | – | – | – | – | – | – | – | – | – | – | – | 45 | – | – | – | – | –
Danio rerio embryo [6] | – | – | – | – | – | – | – | – | – | – | – | – | – | – | 49 | – | – | – | – | – | –
Danio rerio embryo [7] | – | – | – | – | – | – | – | – | – | – | – | – | – | – | – | – | – | – | – | – | 85
Danio rerio embryo [8] | – | – | – | – | – | – | – | – | – | – | – | – | – | – | – | – | – | 41 | – | – | –
Danio rerio embryo [9] | – | – | – | – | – | – | – | – | – | – | – | – | – | – | – | – | 81 | – | – | – | –
Danio rerio embryo [10] | – | – | – | – | – | – | – | – | – | – | – | – | – | – | – | – | – | – | – | 89 | –
Danio rerio embryo [11] | – | – | – | – | 46 | – | – | – | – | – | – | – | – | – | – | – | – | – | – | – | –
Danio rerio embryo [12] | – | – | – | – | – | – | – | – | – | – | – | 47 | – | – | – | – | – | – | – | – | –
Danio rerio embryo [19] | – | – | – | – | – | – | – | – | 35 | – | – | – | – | – | – | – | – | – | – | – | –
Danio rerio embryo [20] | – | 30 | – | – | – | – | – | – | – | – | – | – | – | – | – | – | – | – | – | – | –
Danio rerio embryo [21] | 45 | – | – | – | – | – | – | – | – | – | – | – | – | – | – | – | – | – | – | – | –
Danio rerio embryo [22] | – | – | – | – | – | – | – | 47 | – | – | – | – | – | – | – | – | – | – | – | – | –
Danio rerio embryo [23] | – | – | – | – | – | – | – | – | – | – | – | – | – | 73 | – | – | – | – | – | – | –
Danio rerio embryo [24] | – | – | – | – | – | – | 67 | – | – | – | – | – | – | – | – | – | – | – | – | – | –
Danio rerio embryo [25] | – | – | – | 37 | – | – | – | – | – | – | – | – | – | – | – | – | – | – | – | – | –
Danio rerio embryo [26] | – | – | – | – | – | – | – | – | – | 62 | – | – | – | – | – | – | – | – | – | – | –
Danio rerio embryo [27] | – | – | 53 | – | – | – | – | – | – | – | – | – | – | – | – | – | – | – | – | – | –
Danio rerio embryo [28] | – | – | – | – | – | – | – | – | – | – | 38 | – | – | – | – | – | – | – | – | – | –
Danio rerio embryo [29] | – | – | – | – | – | – | – | – | – | – | – | – | 77 | – | – | – | – | – | – | – | –
Danio rerio embryo [30] | – | – | – | – | – | 70 | – | – | – | – | – | – | – | – | – | – | – | – | – | – | –

Conditions | EC10 Any effect [nM] | EC10 Curvature Increase [nM] | EC10 Eye size Decrease [nM] | EC20 Any effect [nM] | EC20 Curvature Increase [nM] | EC20 Eye size Decrease [nM] | EC50 Any effect [nM] | EC50 Curvature Increase [nM] | EC50 Eye size Decrease [nM] | spontaneous tail coiling frequency
Danio rerio embryo [2], exposure time: 2 dpf | – | – | – | – | – | – | 32 | – | – | –
Danio rerio embryo [2], exposure time: 4 dpf | – | – | – | – | – | – | 70 | – | – | –
Danio rerio embryo [3], exposure time: 2 dpf | – | – | – | – | – | – | – | – | 51 | –
Danio rerio embryo [3], exposure time: 4 dpf | – | – | – | – | – | – | – | – | 82 | –
Danio rerio embryo [4], exposure time: 2 dpf | – | – | – | – | – | – | – | 38 | – | –
Danio rerio embryo [4], exposure time: 4 dpf | – | – | – | – | – | – | – | 82 | – | –
Danio rerio embryo [13], exposure time: 2 dpf | – | – | – | 19 | – | – | – | – | – | –
Danio rerio embryo [13], exposure time: 4 dpf | – | – | – | 56 | – | – | – | – | – | –
Danio rerio embryo [14], exposure time: 2 dpf | 14 | – | – | – | – | – | – | – | – | –
Danio rerio embryo [14], exposure time: 4 dpf | 49 | – | – | – | – | – | – | – | – | –
Danio rerio embryo [15], exposure time: 2 dpf | – | – | – | – | – | 37 | – | – | – | –
Danio rerio embryo [15], exposure time: 4 dpf | – | – | – | – | – | 70 | – | – | – | –
Danio rerio embryo [16], exposure time: 2 dpf | – | – | 31 | – | – | – | – | – | – | –
Danio rerio embryo [16], exposure time: 4 dpf | – | – | 64 | – | – | – | – | – | – | –
Danio rerio embryo [17], exposure time: 2 dpf | – | 22 | – | – | – | – | – | – | – | –
Danio rerio embryo [17], exposure time: 4 dpf | – | 62 | – | – | – | – | – | – | – | –
Danio rerio embryo [18], exposure time: 2 dpf | – | – | – | – | 27 | – | – | – | – | –
Danio rerio embryo [18], exposure time: 4 dpf | – | – | – | – | 68 | – | – | – | – | –
Danio rerio embryo [31], 0.013 µM | – | – | – | – | – | – | – | – | – | 0.94
Danio rerio embryo [31], 0.017 µM | – | – | – | – | – | – | – | – | – | 2.28
Danio rerio embryo [31], 0.02 µM | – | – | – | – | – | – | – | – | – | 1.96
Danio rerio embryo [31], 0.03 µM | – | – | – | – | – | – | – | – | – | 1.28
Danio rerio embryo [31], 0.0319628 µM | – | – | – | – | – | – | – | – | – | 4.8
Danio rerio embryo [31], 0.045 µM | – | – | – | – | – | – | – | – | – | 1.58
Danio rerio embryo [31], 0.0477056 µM | – | – | – | – | – | – | – | – | – | 5.09
Danio rerio embryo [31], 0.048 µM | – | – | – | – | – | – | – | – | – | 2.73
Danio rerio embryo [31], 0.064 µM | – | – | – | – | – | – | – | – | – | 2.5
Danio rerio embryo [31], 0.067 µM | – | – | – | – | – | – | – | – | – | 4.88
Danio rerio embryo [31], 0.0715584 µM | – | – | – | – | – | – | – | – | – | 6.17
Danio rerio embryo [31], 0.084 µM | – | – | – | – | – | – | – | – | – | 2.72
Danio rerio embryo [31], 0.087 µM | – | – | – | – | – | – | – | – | – | 4.84
Danio rerio embryo [31], 0.107 µM | – | – | – | – | – | – | – | – | – | 4.95
